Data reported in ChEMBL document CHEMBL1127329, “6-(1H-imidazol-1-yl)-7-nitro-2,3(1H,4H)-quinoxalinedione hydrochloride (YM90K) and related compounds: structure-activity relationships for the AMPA-type non-NMDA receptor” (J Med Chem, 1994).

Legend:
[1] = molecular target: T1, Glutamate receptor ionotropic, AMPA (Rattus norvegicus) (UniProt P19491+P19492+P19493+P19490); experiment: Ability to inhibit [3H]AMPA binding to AMPA receptor in rat whole brain at 1 uM concentration
Glutamate NMDA receptor [2] = experiment: Binding affinity of compound against NMDA receptor binding site in rat brain membrane using [3H]glutamate as radioligand; type: cell membranes
[3] = molecular target: Glutamate receptor ionotropic, AMPA (Rattus norvegicus, UniProt P19490+P19491+P19492+P19493)
Description: Binding affinity against AMPA receptor in rat brain membrane using [3H]-AMPA as radioligand

[4] = molecular target: Glutamate receptor ionotropic, kainate; experiment: Binding affinity against kainate receptor in rat brain membrane using [3H]kainate as radioligand; type: cell membranes
Glutamate NMDA receptor [5] = experiment: Binding affinity of compound against strychnine-insensitive glycine site on NMDA receptor in rat brain membrane using [3H]glycine as radioligand; type: cell membranes
[6] = molecular target: T1, Glutamate receptor ionotropic, AMPA (Rattus norvegicus); experiment: Ability to inhibit [3H]AMPA binding to AMPA receptor in rat whole brain at 100 uM concentration; type: tissue-based

| Compound | Ki [3] [µM] | other results |
| --- | --- | --- |
| Oc1nc2cc(F)c(-n3ccnc3)cc2nc1O | – | inhibition [1]: 14% |
| O=c1[nH]c2cc(-n3ccnc3)c([N+](=O)[O-])cc2[nH]c1=O [YM-90K] | 0.084 | Ki (Glutamate NMDA receptor [2]): > 100 µM; Ki [4]: 2.2 µM; Ki (Glutamate NMDA receptor [5]): 37 µM |
| Oc1nc2ccc(-n3ccnc3)cc2nc1O | 1.6 | – |
| O=[N+]([O-])c1cc2nc(O)c(O)nc2cc1-n1cnc(-c2ccccc2)c1 | 0.23 | – |
| NS(=O)(=O)c1cccc2c1c([N+](=O)[O-])cc1nc(O)c(O)nc12 [NBQX] | – | Ki (Glutamate NMDA receptor [2]): > 100 µM; Ki (Glutamate NMDA receptor [5]): > 100 µM |
| O=[N+]([O-])c1ccc2nc(O)c(O)nc2c1 | 2 | – |
| Oc1nc2ccccc2nc1O | – | inhibition [6]: 24% |
| CC(=O)c1cc2nc(O)c(O)nc2cc1-n1ccnc1 | – | inhibition [1]: 36% |
| O=[N+]([O-])c1cc2nc(O)c(O)nc2cc1-c1c[nH]cn1 | 0.69 | – |
| O=[N+]([O-])c1cc2nc(O)c(O)nc2cc1-n1cncn1 | 0.24 | – |
| O=[N+]([O-])c1cc2nc(O)c(O)nc2cc1-c1cccnc1 | 0.62 | – |
| Oc1nc2ccc(-n3ccnc3)c(C(F)(F)F)c2nc1O | – | inhibition [1]: 10% |
| CCc1nccn1-c1cc2nc(O)c(O)nc2cc1[N+](=O)[O-] | 0.39 | – |
| O=[N+]([O-])c1cc2nc(O)c(O)nc2cc1-n1cnc2c1CCCC2 | 4.8 | – |
| Nc1cc2nc(O)c(O)nc2cc1-n1ccnc1 | – | inhibition [1]: 16% |
| O=[N+]([O-])c1cc2nc(O)c(O)nc2cc1-n1cccn1 | 1.4 | – |
| Cc1ccc2nc(O)c(O)nc2c1 | – | inhibition [6]: 28% |
| N#Cc1cc2c(cc1[N+](=O)[O-])=NC(=O)C(=O)N=2 | – | Ki (Glutamate NMDA receptor [2]): 25 µM; Ki [4]: 1.8 µM; Ki (Glutamate NMDA receptor [5]): 5.6 µM |
| Cc1cc2nc(O)c(O)nc2cc1-n1ccnc1 | – | inhibition [1]: 14% |
| Oc1nc2cc(-n3ccnc3)c(-n3ccnc3)cc2nc1O | 0.82 | – |

More lines, main results first:

| Ki [3] [µM] | Compound | other results |
| --- | --- | --- |
| 0.18 | Cc1cn(-c2cc3nc(O)c(O)nc3cc2[N+](=O)[O-])cn1 | – |
| 0.2 | N#Cc1cc2nc(O)c(O)nc2cc1-n1ccnc1 | – |
| 0.2 | Oc1nc2cc(-n3ccnc3)c(C(F)(F)F)cc2nc1O | – |
| 0.43 | Cc1nccn1-c1cc2nc(O)c(O)nc2cc1[N+](=O)[O-] | – |
| 0.1 | O=[N+]([O-])c1cn(-c2cc3nc(O)c(O)nc3cc2[N+](=O)[O-])cn1 | – |
| 5 | N#Cc1ccc2nc(O)c(O)nc2c1 | – |
| 1.3 | O=[N+]([O-])c1cc2nc(O)c(O)nc2cc1-n1cnc2ccccc21 | – |
| 1.9 | O=[N+]([O-])c1cc(-n2ccnc2)cc2nc(O)c(O)nc12 | – |
